Laboratory results from patent US7879887B2, “α-amino acid derivatives and medicaments containing the same as an active ingredient” (Nissan Chemical Industries, Ltd., priority 2006, dated 2011).
pIC50: −log10 of the molar value.

Tests used:
[1] = tested on: ovarian cancer cell line IGROV1; experiment: Cell proliferation inhibitory activity, IGROV1; type: cell-based; conditions: Homo sapiens, IGROV-1, 96 h, cells counted 4 days later with Cell Counting Kit-8
Experimental: (§1) Evaluations were carried out using colon carcinoma cell line SW620 (Cat. No. CCL-227), lung carcinoma cell line NCI-H460 (Cat. No. HTB-177), prostate cancer cell line DU 145 (Cat. No. HTB-81), breast cancer cell line MDA-MB-231 (Cat. No. HTB26) and leukemia cell line KG-1a (Cat. No. CCL-246.1) purchased from ATCC, pancreatic cancer cell line MIAPaCa-2 (Cat. No. CRL-1420) purchased from Dainippon Pharmaceutical, and ovarian cancer cell line IGROV1 received from the Netherland Cancer Institute. The cells were cultured under the conditions recommended by the supplier for each cell line, or with respect to IGROV1, according to the method described in Cancer Res. 59: 4559-4563, 1999. Cells suspended in media were added to solutions containing the test substances at various concentrations followed by culturing in a 5% CO2 incubator at 37° C. The numbers of cells were counted 4 days later with the Cell Counting Kit-8. IC50 values were calculated by assigning measured values in the case of not containing a test substance to an inhibition of 0%, and assigning measured values in the case of not containing a test substance or cells to an inhibition of 100%.

[2] = tested on: lung carcinoma cell line NCI-H460; experiment: Cell proliferation inhibitory activity, NCI-H460; type: cell-based; conditions: Homo sapiens, 96 h, cells counted 4 days later with Cell Counting Kit-8
Experimental: as §1

[3] = tested on: leukemia cell line KG-1a; experiment: Cell proliferation inhibitory activity, KG-1a; type: cell-based; conditions: Homo sapiens, 96 h, cells counted 4 days later with Cell Counting Kit-8
Summary of the method: (§2)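 Suspended cells were added to test substance solutions at a range of concentrations and cultured for 4 days at 37° C in a 5% CO2 incubator. Viable cell numbers were then determined by CCK-8.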

[4] = tested on: breast cancer cell line MDA-MB-231; experiment: Cell proliferation inhibitory activity, MDA-MB-231; type: cell-based; conditions: Homo sapiens, 96 h, cells counted 4 days later with Cell Counting Kit-8
Experimental: as §1

[5] = biological target: CDK2/Cyclin E complex (Homo sapiens, UniProt P24941); experiment: In vitro kinase assay, CDK2/Cyclin E complex; type: biochemical; conditions: recombinant protein (Upstate); read-out: CDK2/cyclinE IC50
Experimental: (§3) Inhibitory activity against Aurora A, CDK1/Cyclin B complex, CDK2/Cyclin E complex and CDK3/Cyclin E complex were measured by in vitro kinase assay using recombinant proteins.

[6] = tested on: prostate cancer cell line DU 145; experiment: Cell proliferation inhibitory activity, DU 145; type: cell-based, human; conditions: Homo sapiens, 96 h, cells counted 4 days later with Cell Counting Kit-8
Summary of the method: as §2

[7] = tested on: pancreatic cancer cell line MIAPaCa-2; experiment: Cell proliferation inhibitory activity, MIAPaCa-2; type: cell-based; conditions: Homo sapiens, MIA PaCa-2, 96 h; cells counted 4 days later, Cell Counting Kit-8
Experimental: as §1

[8] = biological target: T1, CDK1/Cyclin B complex (Homo sapiens, UniProt P06493); experiment: In vitro kinase assay, CDK1/Cyclin B complex; type: biochemical; conditions: recombinant protein (Upstate)
T1 construct: purchased Upstate Inc. 14-450
T1 sequence (P06493 whole entry): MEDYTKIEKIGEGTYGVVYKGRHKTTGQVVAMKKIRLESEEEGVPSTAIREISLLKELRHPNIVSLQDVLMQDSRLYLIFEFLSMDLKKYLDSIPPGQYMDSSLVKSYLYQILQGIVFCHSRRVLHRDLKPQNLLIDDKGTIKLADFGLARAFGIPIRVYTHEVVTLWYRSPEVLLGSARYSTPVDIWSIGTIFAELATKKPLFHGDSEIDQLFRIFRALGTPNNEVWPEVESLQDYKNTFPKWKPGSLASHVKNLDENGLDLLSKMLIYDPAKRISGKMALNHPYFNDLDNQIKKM
T1 sequence (P14635 whole entry partner): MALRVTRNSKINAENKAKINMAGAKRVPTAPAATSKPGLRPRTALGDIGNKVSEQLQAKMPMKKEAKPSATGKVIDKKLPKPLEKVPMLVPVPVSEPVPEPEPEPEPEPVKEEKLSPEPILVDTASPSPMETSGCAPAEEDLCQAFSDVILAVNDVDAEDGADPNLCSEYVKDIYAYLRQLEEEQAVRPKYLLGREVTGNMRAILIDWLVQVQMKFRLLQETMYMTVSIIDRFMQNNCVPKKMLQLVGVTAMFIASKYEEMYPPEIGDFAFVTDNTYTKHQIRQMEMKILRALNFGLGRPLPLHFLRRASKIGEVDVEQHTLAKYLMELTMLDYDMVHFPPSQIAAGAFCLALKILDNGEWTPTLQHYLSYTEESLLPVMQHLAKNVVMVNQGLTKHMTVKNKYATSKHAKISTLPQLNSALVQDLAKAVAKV
Experimental: Inhibitory activity against Aurora A, CDK1/Cyclin B complex, CDK2/Cyclin E complex and CDK3/Cyclin E complex were measured by in vitro kinase assay using recombinant proteins. The assays were carried out by using recombinant proteins (Upstate Inc.) for Aurora A, CDK1/Cyclin B complex, CDK2/Cyclin E complex and CDK3/Cyclin E complex (respective cat. nos. 14-511, 14-450, 14-448 and 14-487), in accordance with the procedure described in the product instructions thereof. The 50% inhibitory concentrations (IC50 values) were calculated by assigning measured values in the case of not containing a test compound to an inhibition of 0%, and assigning measured values in the case of not containing a test compound and enzyme to an inhibition of 100%.

[9] = tested on: colon carcinoma cell line SW620; experiment: Cell proliferation inhibitory activity, SW620; type: cell-based, human; conditions: Homo sapiens, SW-620, 96 h, cells counted 4 days later with Cell Counting Kit-8
Summary of the method: as §2

[10] = biological target: T2, Aurora A (Homo sapiens, UniProt O14965); experiment: In vitro kinase assay, Aurora A; type: biochemical; conditions: recombinant protein (Upstate)
T2 construct: purchased Upstate Inc. 14-511
T2 sequence (O14965 1-403): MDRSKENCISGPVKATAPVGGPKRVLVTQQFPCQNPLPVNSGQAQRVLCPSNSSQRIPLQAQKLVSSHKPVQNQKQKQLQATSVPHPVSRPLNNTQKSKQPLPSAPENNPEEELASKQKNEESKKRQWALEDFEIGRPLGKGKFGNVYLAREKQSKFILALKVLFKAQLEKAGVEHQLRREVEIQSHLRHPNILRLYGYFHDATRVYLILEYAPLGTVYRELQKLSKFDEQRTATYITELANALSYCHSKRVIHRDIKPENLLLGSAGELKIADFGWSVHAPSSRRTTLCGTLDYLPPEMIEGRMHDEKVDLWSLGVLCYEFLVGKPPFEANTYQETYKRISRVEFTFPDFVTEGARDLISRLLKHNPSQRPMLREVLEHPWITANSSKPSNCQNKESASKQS
Summary of the method: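 Recombinant human enzymes assayed per supplier protocol. IC50 derived with compound-free wells set as 0% inhibition and compound- and enzyme-free wells as 100% inhibition.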

[11] = biological target: T3, CDK3/Cyclin E complex (Homo sapiens, UniProt Q00526); experiment: In vitro kinase assay, CDK3/Cyclin E complex; type: biochemical; conditions: recombinant protein (Upstate); read-out: CDK3/cyclinE IC50
T3 construct: purchased Upstate Inc. 14-487
T3 sequence (Q00526 whole entry): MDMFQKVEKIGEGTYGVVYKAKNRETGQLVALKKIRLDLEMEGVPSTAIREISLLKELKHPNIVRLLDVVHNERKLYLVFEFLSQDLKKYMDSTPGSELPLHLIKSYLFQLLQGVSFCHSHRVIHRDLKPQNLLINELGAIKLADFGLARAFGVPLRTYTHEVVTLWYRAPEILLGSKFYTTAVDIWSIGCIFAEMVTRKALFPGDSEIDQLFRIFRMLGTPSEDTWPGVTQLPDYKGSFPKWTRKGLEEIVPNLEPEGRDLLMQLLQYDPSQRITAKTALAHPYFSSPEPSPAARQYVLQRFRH
T3 sequence (P24864 whole entry partner): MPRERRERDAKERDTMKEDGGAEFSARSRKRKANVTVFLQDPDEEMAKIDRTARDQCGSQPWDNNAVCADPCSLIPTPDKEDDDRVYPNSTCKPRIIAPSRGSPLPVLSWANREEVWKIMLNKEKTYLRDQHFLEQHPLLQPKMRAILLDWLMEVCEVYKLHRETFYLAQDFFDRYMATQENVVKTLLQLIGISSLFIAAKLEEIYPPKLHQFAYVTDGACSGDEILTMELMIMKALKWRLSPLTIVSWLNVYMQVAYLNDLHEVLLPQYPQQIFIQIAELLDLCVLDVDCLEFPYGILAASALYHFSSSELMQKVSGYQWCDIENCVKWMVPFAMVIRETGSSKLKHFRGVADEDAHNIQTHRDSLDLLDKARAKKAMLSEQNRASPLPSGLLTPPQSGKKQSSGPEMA
Experimental: as §3

[12] = biological target: T4, recombinant human βARK1 (Homo sapiens, UniProt P25098); experiment: Inhibitory activity against βARK1 (33P phosphorylation of synthetic peptide); type: biochemical; conditions: recombinant human βARK1, 60 minutes at room temperature
T4 construct: made in house; host or cells: Sf-9 insect cells (baculovirus, pBacPAK8)
T4 sequence (P25098 1-689): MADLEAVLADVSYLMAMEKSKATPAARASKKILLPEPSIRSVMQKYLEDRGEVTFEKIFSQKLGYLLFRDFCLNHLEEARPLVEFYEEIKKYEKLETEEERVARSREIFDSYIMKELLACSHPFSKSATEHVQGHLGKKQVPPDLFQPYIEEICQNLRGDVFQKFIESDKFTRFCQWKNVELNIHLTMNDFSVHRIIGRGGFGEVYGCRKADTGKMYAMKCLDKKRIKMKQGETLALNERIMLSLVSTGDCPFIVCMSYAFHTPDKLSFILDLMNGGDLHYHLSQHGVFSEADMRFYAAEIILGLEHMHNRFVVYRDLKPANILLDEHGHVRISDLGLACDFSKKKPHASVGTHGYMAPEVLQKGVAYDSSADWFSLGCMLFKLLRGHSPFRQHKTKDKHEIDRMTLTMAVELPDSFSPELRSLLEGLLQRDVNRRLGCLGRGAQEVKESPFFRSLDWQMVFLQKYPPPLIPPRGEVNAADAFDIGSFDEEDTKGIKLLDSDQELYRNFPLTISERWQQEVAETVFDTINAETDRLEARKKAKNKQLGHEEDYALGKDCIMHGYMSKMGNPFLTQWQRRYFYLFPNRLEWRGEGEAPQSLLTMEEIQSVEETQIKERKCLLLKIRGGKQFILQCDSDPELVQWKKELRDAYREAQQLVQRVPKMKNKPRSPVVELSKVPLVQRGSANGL
Experimental: Human βARK1 was amplified by PCR based on the base sequence of human βARK1 mRNA registered in GenBank (Accession No. M80776) using a human leukocyte cDNA library (Gibco BRL Cat. No. 10421-022) as a template. The amplified cDNA fragment was inserted into a pBacPAK8 vector (Clontech) to construct a plasmid.
Recombinant human βARK1 was expressed using the BacPAK Baculovirus Expression System (Clontech, Cat. No. K1601-1). 1×10^6 Sf-9 cells were adhered to a 35 mm dish in 2.5 mL of TMN-FH Insect Medium containing 10 vol % FBS (Pharminogen, Cat. No. PM-21227M) and cultured overnight at 27° C. On the following day, the medium was removed and 500 ng of the above plasmid, BacPAK6 viral DNA cleaved with Bsu36I (5 μL) and 1.5 mL of the same medium mixed with 4 μL of Bacfectin were added followed by culturing for 5 hours, further adding 1.5 mL of medium and subsequently culturing for 5 days. […] The culture supernatant after 5 days was recovered and a plaque assay was carried out to isolate single plaques. These were then infected into Sf-9 cells and the resulting culture supernatant was designated as Passage 1 (1−3×10^11 pfu/mL). Passage 1 was added to 3×10^7 Sf-9 cells to a multiplicity of infection (MOI) of 0.1 (pfu/cell), suspension culturing was carried out for 5 days using a spinner flask, and the resulting culture supernatant was designated as Passage 2 (4×10^10 pfu/mL) and used as a viral liquid for large-volume expression.
Sf-9 cells at 3×10^9 cells/200 mL were infected by adding Passage 2 to an MOI of 100 followed by addition of medium to bring to a liquid volume of 2 L and further culturing for 3 days. After recovering the cells by centrifugation and washing three times with PBS, the cells were suspended in 100 mL of Lysis Buffer (20 mmol/L HEPES-HCl (pH 7.2), 5 mmol/L EDTA, 3 mmol/L phenylmethylsulfonyl fluoride (PMSF)). After lysing the cells by ultrasonic treatment at low temperature, the supernatant was recovered by centrifuging (45,000×g, 15 minutes) (sup1). NaCl was added to the resulting supernatant to a final concentration of 250 mmol/L followed by ultracentrifugation (300,000×g, 60 minutes) and using the subsequent supernatant as a crude cell extract (sup2).
Purification was carried out with reference to the literature (Benovic, J. L., Methods Enzymol. 1991; 200: 351-362; Kim, C. M. et al., Receptor 1993; 3: 39-55; Sohlemann, P. et al., FEBS Letters 1993; 324: 59-62). The crude cell extract was accurately brought to a volume of 400 mL with Buffer C (20 mmol/L HEPES-HCl (pH 7.2), 5 mmol/L EDTA, 0.02 vol % Triton X-100) followed by loading onto a 50 mL SP-Sepharose FF (Amersham Pharmacia Biotech) column equilibrated with Buffer C. […] ETA was carried out on each fraction using anti-GRK2 antibody (Santa-Cruz Cat. No. SC-562) and the positive fractions were collected (GRK2=βARK1). This was then diluted three-fold with Buffer C and loaded on a 5 mL HiTrap Heparin column (Amersham Pharmacia Biotech) column equilibrated with Buffer C. After washing the column with Wash Buffer (100 mmol/L NaCl, Buffer C), the column was eluted with an NaCl concentration gradient (100 to 600 mmol/L NaCl for 100 minutes, flow rate: 1 mL/min). The positive fractions as determined by ETA were collected and stored in a freezer at −80° C.
A synthetic peptide having an amino acid sequence of biotinated-[…] was used in accordance with a previous report (Chen, C. Y. et al., J. Biol. Chem. 1993; 268: 7825-7831). This synthetic peptide can also be synthesized with reference to known synthesis methods (for example, Chen, C. Y. et al., J. Biol. Chem. 1993; 268: 7825-7831, Biochemistry 1991; 30: 5118-5125). 2 μl of a DMSO solution in which the test compound was diluted to as to be […] the final concentration was dispensed into a 96-well plate (round bottom) (Falcon 351190) (final concentration: 4 vol % DMSO). […]

Compound	pIC50 [1]	pIC50 [2]	pIC50 [3]	pIC50 [4]	pIC50 [5]	pIC50 [6]	pIC50 [7]	pIC50 [8]	pIC50 [9]	pIC50 [10]	pIC50 [11]	pIC50 [12]
CC(Nc1cccc(O)c1)C(=O)Nc1nc2ccc3[nH]ncc3c2s1 (stereo not shown) [compound 23]	5.89	5.85	> 7.00	5.80	7.52	5.80	5.46	6.82	6.30	7.33	7.33	–
CC(Nc1ccc(Cl)cc1)C(=O)Nc1nc2ccc3[nH]ncc3c2s1 (stereo not shown) [compound 24]	5.34	–	> 7.00	5.42	7.30	5.49	5.32	–	6.05	–	7.12	8.10
CCC(=O)Nc1cc(NC(C)(C)C(=O)Nc2nc3c(C(F)(F)F)cc4[nH]ncc4c3s2)ccc1F [compound 76]	5.57	5.82	6.52	5.34	6.53	5.74	5.31	–	6.05	–	6.91	8.03
CC(C)(Nc1ccc(Cl)c(C(=O)NOCc2ccccc2)c1)C(=O)Nc1nc2c(C(F)(F)F)cc3[nH]ncc3c2s1 [compound 98]	–	5.74	–	5.59	–	5.36	5.40	–	6.30	7.19	6.89	–
CC(C)(Nc1ccc(Cl)c(OCC(O)CO)c1)C(=O)Nc1nc2c(C(F)(F)F)cc3[nH]ncc3c2s1 (stereo not shown) [compound 99]	5.36	5.39	6.52	5.52	7.70	5.77	5.35	6.85	6.15	6.85	8.06	–
Cc1cc2[nH]ncc2c2sc(NC(=O)C3(Nc4ccc(Cl)cc4)CC3)nc12 [compound 127]	5.31	5.51	> 7.00	5.37	6.89	5.52	–	–	6.15	–	6.73	8.21
CNC(=O)c1cc(NC(C)(C)C(=O)Nc2nc3c(C(F)(F)F)cc4[nH]ncc4c3s2)ccc1F [compound 137]	5.52	6.40	> 7.00	5.72	7.40	6.40	5.51	7.41	6.70	–	7.92	–
CC(C)(Nc1ccc(F)c(C(N)=O)c1)C(=O)Nc1nc2c(C(F)(F)F)cc3[nH]ncc3c2s1 [compound 138]	5.35	5.80	–	–	7.43	5.64	5.37	7.28	5.68	6.58	7.92	–
